Assay results taken from patent US20150190369A1, “QUERCETIN-3-GLUCOSIDE AND USES THEREOF” (priority 2012, published 2015).
Entries after “also recorded” stand apart in the source; their conditions may differ.

Key:
[1] = tested on: LDLR; experiment: Semi-quantitative immunoblotting for LDLR protein in Huh7 cell lysates; type: cell-based, human
Description: (§1) At passage, Huh7 cells were routinely seeded at sub-confluence (˜10^6 cells/10-cm dish) in Dulbecco's modified Eagle's medium (DMEM) containing 10% fetal bovine serum (FBS) or LPDS (for experiments) and 50 μg/ml gentamycin. They were incubated overnight at 37° C., in a humidified 5% CO2-95% air atmosphere. Cells were treated or not with Q3G at defined concentrations and for defined lengths of time. Media were collected and centrifuged at 200 g for 5 min to sediment suspended cells; supernatants were collected and supplemented with 0.33 volumes of a 3×-concentrated PIC. Cell monolayers were rinsed with ice-cold phosphate-buffered saline (PBS); they were overlaid with […] the RIPA lysis buffer (50 mM Tris-HCl, pH 8, 150 mM NaCl, 1% NP-40, 0.5% Na-deoxycholate and 0.1% SDS) supplemented with 1× PIC. After 20 min in an ice bath, the lysates were centrifuged at 14,000 g and 4° C. for 20 min, and supernatants were collected. Conditioned media and lysates were stored at −20° C. until analysis.
(§2) Cell lysates were fractionated by SDS-PAGE and electrophoretically transferred onto a polyvinylidene fluoride membrane. The membrane was incubated with a goat antihuman LDLR, rabbit anti-PCSK9, or rabbit anti-SREBP-2 polyclonal antibody at 1:1000, 1:1500, and 1:200 dilutions, respectively, and then with a HRP-conjugated heterospecific secondary antibody against the primary Igs at a 1:2000 dilution. It was probed for HRP reaction using the Western Lightning Chemiluminescence Reagent Plus a chemiluminescence-based revelation kit. The signal was captured on X-ray film and immunoreactive bands analyzed by densitometry on a Syngene's ChemiGenius^2XE Bio Imaging System (Cambridge, Mass.) within the dynamic range of the instrument. The membrane was stripped and reprobed with the anti-β-actin monoclonal primary antibody at 1:20,000 dilution and HRP-conjugated rabbit anti-mouse IgG secondary antibody at a 1:5000 dilution. The densitometric values of β-actin bands were using for normalization of experimental samples.
Huh7 cells, hepatocyte derived cellular carcinoma cells, were incubated for 24 h in medium containing 10% lipoprotein-depleted serum (LPDS) and 0 to 10 μM Q3G. The level of LDLR mRNA was measured by quantitative real-time RT-PCR; that of the LDLR protein by semi-quantitative immunoblotting. Exposure to Q3G increased the intracellular content of LDLR mRNA in a concentration-dependent manner; the increase reached a 2× maximum at 2 μM (P<0.01, relative to no Q3G) (FIG. 3A). The content of the corresponding protein followed a similar pattern, but reached a 4× maximum at 4 μM (P<0.005) (FIG. 3B).
The kinetics of cellular accumulation of LDLR and PCSK9 at 2 μM Q3G was also examined: PCSK9 accumulation in the cells began after a 3-h lag; that of LDLR after 6-h lag (FIG. 6).
Statins induce expression of LDLR and PCSK9. […] We examined whether, at a 5 μM concentration of Q3G, simvastatin at 0.2 and 1 μM could further up regulate LDLR expression in Huh7 cells; and, inversely, whether the flavonol can reduce statin-stimulated PCSK9 secretion secreted by Huh7 cells.

[2] = tested on: PCSK9; experiment: Semi-quantitative immunoblotting for cellular PCSK9 in Huh7 cells; type: cell-based, human
Description: as §1
as §2, with “samples. […]” for “samples.”

[3] = tested on: PCSK9; experiment: ELISA for secreted PCSK9 in conditioned media of Huh7 cells; type: cell-based, human; settings: Huh7, 24 h
Description: Media were collected and PCSK9 levels therein were determined by ELISA.
At passage, Huh7 cells were routinely seeded at sub-confluence (˜10^6 cells/10-cm dish) in Dulbecco's modified Eagle's medium (DMEM) containing 10% fetal bovine serum (FBS) or LPDS (for experiments) and 50 μg/ml gentamycin. They were incubated overnight at 37° C., in a humidified 5% CO2-95% air atmosphere. Cells were treated or not with Q3G at defined concentrations and for defined lengths of time. Media were collected and centrifuged at 200 g for 5 min to sediment suspended cells; supernatants were collected and supplemented with 0.33 volumes of a 3×-concentrated PIC. Cell monolayers were rinsed with ice-cold phosphate-buffered saline (PBS); they were overlaid with 0.5 of the RIPA lysis buffer (50 mM Tris-HCl, pH 8, 150 mM NaCl, 1% NP-40, 0.5% Na-deoxycholate and 0.1% SDS) supplemented with 1× PIC. After 20 min in an ice bath, the lysates were centrifuged at 14,000 g and 4° C. for 20 min, and supernatants were collected. Conditioned media and lysates were stored at −20° C. until analysis.
The assays for PCSK9 and insulin were conducted as prescribed by kit manufacturers, using a Thermo Scientific plate reader. For example, PCSK9 levels in conditioned media were measured using the human PCSK9 ELISA kit from Circulex, as specified the manufacturer. The assay was a sandwich immunoassay using two antibodies (A and B) recognizing different PCSK9 epitopes. Briefly, aliquot of diluted media were overlaid on wells coated with anti-PCSK9 antibody A. After 1-h incubation, the wells were washed, overlaid with a solution of HRP-conjugated anti-PCSK9 antibody B, and incubated for 1 h. They were washed again, and overlaid with a solution of tetra-methylbenzidine as a chromogenic substrate for HRP. After 15 min, the reaction was stopped with ammonium sulfate and the absorbance of the reaction mixtures measured by spectrophotometry at 450 nm. All the steps were performed at room temperature. Standards consisted of recombinant human PCSK9.

[4] = tested on: LDLR mRNA; experiment: qRT-PCR for LDLR mRNA in MIN6 β-cells; type: cell-based, mouse; set-up: increase in LDLR mRNA: dose or concentration left out as unconfirmed; settings: MIN6, 24 h
Description: (§3) Mouse insulinoma MIN6 cells were cultured in a 5% CO2-95% air atmosphere at 37° C. in DMEM medium containing 10% heat-inactivated fetal bovine serum, 1 mM Na-pyruvate, 2 mM L-glutamine, 25 mM D-glucose, and 28 μM β-mercaptoethanol. Q3G at a specific final concentration was supplemented to the culture medium and incubation was conducted for a selected length of time. Media were collected, spun at 600 g to sediment suspended cells, supplemented with 0.5 volumes of 3×RIPA-PIC (1×: 50 mM Tris-HCl, pH 8, 150 mM NaCl, 1% NP-40, 0.5% Na-deoxycholate and 0.1% SDS and PIC). Cells were lysed in 1×RIPA-PIC for immuno-blotting, or in RNA extraction buffer for qRT-PCR.
For the mouse studies, the levels of specific mRNAs were quantified in a PCR-based fluorogenic assay using the Taqman technology (Holland et al., 1991). Briefly, total RNA was extracted using the RNeasy extraction kit and reverse-transcribed into cDNA using random hexameric primers and the Superscript II RNase H-Reverse Transcriptase. The cDNA was used as a template to produce PCR amplicons using FastStart TaqMan ProbeMaster-Rox master mix, primer pairs and the appropriate fluorescent probes) in the Stratagene Mx3005P thermocycler. Standard curves were established using varying amounts of pre-quantified amplicons of each transcript. The level of mRNA for the TATA-box binding protein (TBP) was used for normalization.
MIN6 β-cells were incubated for 24 h in the presence of different concentrations of Q3G. Total RNA was extracted and analyzed by qRT-PCR for the levels of mRNA for PCSK9, LDLR, ABCA1 and ABCG1.

[5] = tested on: LDLR; experiment: Immunoblotting for LDLR in MIN6 β-cells; type: cell-based, mouse
Description: (§4) The corresponding photographs of the immunoblotting results are also shown. MIN6 cells were incubated for 24 h in the presence of 16 μM Q3G. Cell lysates were analyzed by semi-quantitative immunoblotting using different antibodies successively.
as §3
(§5) Cell lysates were fractionated by SDS-PAGE and electrophoretically transferred onto a polyvinylidene fluoride membrane. […] The signal was captured on X-ray film and immunoreactive bands analyzed by densitometry on a Syngene's ChemiGenius^2XE Bio Imaging System (Cambridge, Mass.) within the dynamic range of the instrument. […]

[6] = tested on: proPCSK9; experiment: Immunoblotting for PCSK9/proPCSK9 in MIN6 β-cells; type: cell-based, mouse; settings: MIN6, 24 h, 16 μM Q3G versus untreated
Description: as §4, §3, §5

[7] = dogs, meal supplement; cited from earlier work
[8] = Huh7, 24 h, co-treatment 5 μM Q3G with simvastatin 0.2 and 1 μM

O=c1c(O[C@@H]2O[C@H](CO)[C@@H](O)[C@H](O)[C@H]2O)c(-c2ccc(O)c(O)c2)oc2cc(O)cc(O)c12 [Q3G, quercetin-3-O-β-D-glucoside]
lag before LDLR accumulation in the cells ([1]; Huh7, 2 μM Q3G, time course): 6 h
increase of LDLR protein content (maximum) ([1]; Huh7, 24 h, 10% LPDS, 0 to 10 μM Q3G, maximum at 4 μM): 4 ×
level of cellular LDLR [1, 8]: increased cellular LDLR to the level induced by the flavonol alone
effect of high concentrations on stimulation of LDLR expression ([1]; Huh7, 24 h, high Q3G concentrations (>20 NM), concentration-dependent): attenuated; also recorded: attenuation
lag before PCSK9 accumulation in the cells ([2]; Huh7, 2 μM Q3G, time course): 3 h
amount of cellular PCSK9 [2, 8]: further increased
increase of PCSK9 protein in the cells ([2]; Huh7, 24 h, highest Q3G concentration tested (0 to 10 μM)): 1.9 ×
level of PCSK9 in spent media ([3]; co-treatment 5 μM Q3G with simvastatin 0.2 and 1 μM, versus simvastatin alone): reducing
decrease of PCSK9 in conditioned media ([3]; highest Q3G concentration tested (0 to 10 μM)): 35%
effect on LDL-receptor mRNA levels ([4]; Q3G 8 mM and above): increased
effect on LDLR mRNA levels ([4]; Q3G up to 4 mM): does not affect
increase in LDLR mRNA ([4]; maximum Q3G concentration used): 1.8 fold
amount of cell-surface LDL-receptor versus untreated MIN6 β-cells ([5]; MIN6, 24 h, 16 μM Q3G): approximately 1.4 times
relative amount of LDLR protein compared with mRNA ([5]; MIN6, Q3G-treated): in concordance with the relative amounts of mRNA
intracellular content of proPCSK9 [6]: higher
quercetin bioavailability versus quercetin aglycone and rutin [7]: significantly greater
